Where “and” joins values, the source holds several entries; their conditions need not be identical. Identical values can stand only once. Inconclusive results and toxic doses are left out. The calls were made as follows: active = survival T/C of 150% or more; inactive = T/C below 125% in these data.
System: P388 leukemia ip, CD2F1 mice, survival T/C
Test: NCI In Vivo Anticancer Drug Screen. Data for tumor model P388 Leukemia (intraperitoneal) in CD2F1 (CDF1) mice
Conditions: endpoint: median survival time, higher = longer survival
Summary of the method: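 Mice carrying the transplanted tumor received test compound or vehicle. Survival was recorded in each group, and the value is the treated-group measurement divided by that of the vehicle-treated control group.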

[1] = dose: 25.0 mg/kg/injection, schedule: Q01DX005 (ip), vehicle: saline with Tween-80
[2] = dose: 50.0 mg/kg/injection, schedule: Q01DX005 (ip), vehicle: saline with Tween-80
[3] = dose: 100.0 mg/kg/injection, schedule: Q01DX005 (ip), vehicle: saline with Tween-80
[4] = dose: 100.0 mg/kg/injection, schedule: Q01DX009 (ip), vehicle: saline with Tween-80
[5] = dose: 200.0 mg/kg/injection, schedule: Q01DX009 (ip), vehicle: saline with Tween-80
[6] = dose: 100.0 mg/kg/injection, schedule: Q04DX002 (ip), vehicle: saline with Tween-80
[7] = dose: 200.0 mg/kg/injection, schedule: Q04DX002 (ip), vehicle: saline with Tween-80
[8] = dose: 60.0 mg/kg/injection, schedule: Q01DX005 (ip), vehicle: saline with Tween-80
[9] = dose: 120.0 mg/kg/injection, schedule: Q01DX005 (ip), vehicle: saline with Tween-80
[10] = dose: 240.0 mg/kg/injection, schedule: Q01DX005 (ip), vehicle: saline with Tween-80
[11] = dose: 25.0 mg/kg/injection, schedule: Q01DX009 (ip), vehicle: saline
[12] = dose: 50.0 mg/kg/injection, schedule: Q01DX009 (ip), vehicle: saline
[13] = dose: 100.0 mg/kg/injection, schedule: Q01DX009 (ip), vehicle: saline
[14] = dose: 50.0 mg/kg/injection, schedule: Q01DX009 (ip), vehicle: Klucel (hydroxypropylcellulose) (HPC)
[15] = dose: 100.0 mg/kg/injection, schedule: Q01DX009 (ip), vehicle: Klucel (hydroxypropylcellulose) (HPC)
[16] = dose: 50.0 mg/kg/injection, schedule: Q01DX009 (ip), vehicle: saline with Tween-80
[17] = dose: 200.0 mg/kg/injection, schedule: Q01DX009 (ip), vehicle: Klucel (hydroxypropylcellulose) (HPC)

Measured: T/C

S=C=NP1(N=C=S)=NP(N=C=S)(N=C=S)=NP(N=C=S)(N=C=S)=NP(N=C=S)(N=C=S)=N1 (stereo not drawn)
inactive: dose: 12.5 mg/kg/injection, schedule: Q01DX005 (ip), vehicle: saline with Tween-80 100 % of control | [1] 99 % of control | [2] 104 % of control and 109 % of control | [3] 114 % of control

COc1ccc([N+](=O)[O-])cc1Br
inactive: [4] 100 % of control | [5] 100 % of control | dose: 400.0 mg/kg/injection, schedule: Q01DX009 (ip), vehicle: saline with Tween-80 100 % of control

CCCCCC(O)/C=C/[C@H]1C(O)CC2OC(CSCCC(=O)O)C[C@@H]21 (stereo partly drawn)
inactive: [6] 103 % of control | [7] 96 % of control

NOCc1cccc(C(F)(F)F)c1
inactive: dose: 75.0 mg/kg/injection, schedule: Q01DX009 (ip), vehicle: saline with Tween-80 87 % of control | dose: 150.0 mg/kg/injection, schedule: Q01DX009 (ip), vehicle: saline with Tween-80 91 % of control | dose: 300.0 mg/kg/injection, schedule: Q01DX009 (ip), vehicle: saline with Tween-80 91 % of control

O=C(NNc1ccccc1)NN(C(=O)Nc1cccc(Cl)c1)c1ccccc1
inactive: dose: 50.0 mg/kg/injection, schedule: Q01DX005 (ip), vehicle: Klucel (hydroxypropylcellulose) (HPC) 96 % of control | dose: 100.0 mg/kg/injection, schedule: Q01DX005 (ip), vehicle: Klucel (hydroxypropylcellulose) (HPC) 104 % of control | dose: 200.0 mg/kg/injection, schedule: Q01DX005 (ip), vehicle: Klucel (hydroxypropylcellulose) (HPC) 100 % of control

COC(=O)Cc1nc2ccccc2s1
inactive: [8] 102 % of control | [9] 104 % of control | [10] 103 % of control

COC1C=CC(=O)C(C)(c2ccc(S(=O)(=O)c3ccccc3)cc2)O1 (stereo not drawn)
inactive: [8] 104 % of control | [9] 95 % of control | [10] 106 % of control

CC1(C)C=CC2=C(O1)C(=O)c1ccccc1C2=O
inactive: dose: 25.0 mg/kg/injection, schedule: Q01DX009 (ip), vehicle: water 101 % of control | dose: 50.0 mg/kg/injection, schedule: Q01DX009 (ip), vehicle: water 107 % of control | dose: 100.0 mg/kg/injection, schedule: Q01DX009 (ip), vehicle: water 115 % of control | dose: 200.0 mg/kg/injection, schedule: Q01DX009 (ip), vehicle: water 110 % of control

CN(C(=O)OCc1ccccc1)c1ccc(C(=O)NC(CCC(=O)OCc2ccccc2)C(=O)OCc2ccccc2)cc1 (stereo not drawn)
inactive: [5] 94 % of control

COc1cc2c(cc1OC)C(CN)C2 (stereo not drawn)
inactive: [11] 111 % of control | [12] 109 % of control | [13] 119 % of control

CCN(CC)CCSCCN(CC)CC
inactive: [1] 98 % of control | [2] 110 % of control | [3] 98 % of control

NC(=S)NNC(=O)CCC(=O)Nc1ccccc1Cl
inactive: [8] 103 % of control | [9] 102 % of control | [10] 99 % of control

CC(C)N1C(C)c2ccccc2OS1=O (stereo not drawn)
inactive: [14] 99 % of control | [15] 108 % of control

CCC1(C)N=C(N)Nc2nc3cc(C)c(C)cc3n21 (stereo not drawn)
inactive: dose: 12.5 mg/kg/injection, schedule: Q01DX009 (ip), vehicle: saline 92 % of control | [11] 91 % of control | [12] 92 % of control and 94 % of control

N#Cc1ccc(NN=NCCSCCO)cc1
inactive: dose: 12.5 mg/kg/injection, schedule: Q01DX009 (ip), vehicle: distilled water + alcohol 96 % of control | dose: 25.0 mg/kg/injection, schedule: Q01DX009 (ip), vehicle: distilled water + alcohol 104 % of control | dose: 50.0 mg/kg/injection, schedule: Q01DX009 (ip), vehicle: distilled water + alcohol 104 % of control | dose: 100.0 mg/kg/injection, schedule: Q01DX009 (ip), vehicle: distilled water + alcohol 109 % of control

COc1cc(OC)c(NC(=O)NNC(=O)C(=O)NC2CC2)cc1Cl
inactive: [16] 99 % of control | [4] 97 % of control | [5] 98 % of control

CC1(C)C(c2ccccc2)CC(c2cccc(O)c2)=[N+]1[O-] (stereo not drawn)
inactive: [14] 97 % of control | [15] 97 % of control | [17] 101 % of control

CCC(CO)N=C(C1=C(O)c2ccccc2C1=O)c1ccccc1 (stereo not drawn)
inactive: [6] 104 % of control | [7] 92 % of control

O=C(O)C(Cc1ccccc1)NC(c1ccc(Cl)cc1)P(=O)(O)O (stereo not drawn)
inactive: [8] 98 % of control | [9] 105 % of control | [10] 97 % of control

C#CC(CC)(CC)N1CC(OC(=O)NCC=C)C1
inactive: [14] 100 % of control | [15] 97 % of control | [17] 95 % of control

OC(CCl)Cn1nnc2ccccc21 (stereo not drawn)
inactive: [2] 103 % of control | [3] 100 % of control | dose: 100.0 mg/kg/injection, schedule: Q04DX003 (ip), vehicle: saline with Tween-80 93 % of control | dose: 200.0 mg/kg/injection, schedule: Q01DX005 (ip), vehicle: saline with Tween-80 94 % of control | dose: 200.0 mg/kg/injection, schedule: Q04DX003 (ip), vehicle: saline with Tween-80 98 % of control | dose: 400.0 mg/kg/injection, schedule: Q04DX003 (ip), vehicle: saline with Tween-80 99 % of control

CCCCCCOCCOCCCN1C(=O)C2C3C=CC(C3)C2(Cl)C1=O (stereo not drawn)
inactive: dose: 50.0 mg/kg/injection, schedule: Q01DX005 (ip), vehicle: distilled water + Tween-80 + alcohol 102 % of control | dose: 100.0 mg/kg/injection, schedule: Q01DX005 (ip), vehicle: distilled water + Tween-80 + alcohol 105 % of control | dose: 200.0 mg/kg/injection, schedule: Q01DX005 (ip), vehicle: distilled water + Tween-80 + alcohol 100 % of control

O/N=C1\CCCCC1C(O)c1c(Cl)cccc1Cl (stereo not drawn)
inactive: [16] 102 % of control | [4] 103 % of control | [5] 96 % of control

O=C(O)CC(CC(=O)O)CN(CC(=O)O)Cc1ccccc1
inactive: dose: 20.0 mg/kg/injection, schedule: Q01DX005 (ip), vehicle: Klucel (hydroxypropylcellulose) (HPC) 102 % of control | dose: 40.0 mg/kg/injection, schedule: Q01DX005 (ip), vehicle: Klucel (hydroxypropylcellulose) (HPC) 90 % of control | dose: 80.0 mg/kg/injection, schedule: Q01DX005 (ip), vehicle: Klucel (hydroxypropylcellulose) (HPC) 91 % of control

O=[N+]([O-])/C=C/c1ccccc1
inactive: dose: 5.0 mg/kg/injection, schedule: Q01DX009 (ip), vehicle: saline sonified 100 % of control | dose: 10.0 mg/kg/injection, schedule: Q01DX009 (ip), vehicle: saline sonified 100 % of control | dose: 20.0 mg/kg/injection, schedule: Q01DX009 (ip), vehicle: saline sonified 100 % of control

O=c1[nH]c2c(c(=O)n1CC(O)CO)CCCC2 (stereo not drawn)
inactive: [8] 104 % of control | [9] 100 % of control | [10] 100 % of control

COc1ccc(OC)c(NC(=O)N2CCCC2)c1
inactive: [16] 100 % of control | [4] 96 % of control | [5] 96 % of control

O=S(=O)(O)Sc1ncnc2nc[nH]c12
inactive: [12] 108 % of control | dose: 75.0 mg/kg/injection, schedule: Q04DX003 (ip), vehicle: saline 100 % of control | [13] 122 % of control | dose: 150.0 mg/kg/injection, schedule: Q04DX003 (ip), vehicle: saline 98 % of control | dose: 200.0 mg/kg/injection, schedule: Q01DX009 (ip), vehicle: saline 108 % of control | dose: 300.0 mg/kg/injection, schedule: Q04DX003 (ip), vehicle: saline 108 % of control

— PubChem BioAssay AID330 (DTP/NCI, 2004)
